In the supplement of paper PMC10307832 one finds relative viability data, which are given here for eight cell lines.

Common to all, as to experiment: relative viability (nuclei count vs DMSO), 5 days (fraction); higher = more cells survive
Compound in the experiment “4EGI-1 + Navitoclax”: O=C(O)C(Cc1ccccc1[N+](=O)[O-])=NNc1nc(-c2ccc(Cl)c(Cl)c2)cs1 (mixture of isomers) [4EGI-1] + CC1(C)CCC(c2ccc(Cl)cc2)=C(CN2CCN(c3ccc(C(=O)NS(=O)(=O)c4ccc(N[C@H](CCN5CCOCC5)CSc5ccccc5)c(S(=O)(=O)C(F)(F)F)c4)cc3)CC2)C1 [Navitoclax] (partner 0.5 µM)
Summed up: (§1)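 Relative viability equals treated-well nuclei counts divided by vehicle-well nuclei counts. Counts came from 4× images of lung cancer cell lines grown in 1536-well plates for 5 days after pin-tool dosing on the day after seeding. Dosing used one drug alone or a fixed anchor-drug dose plus five library-drug doses (not always all listed) in √10 steps, and values are medians of duplicate plates.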

Compound in the experiment “XMD8-85 + Crizotinib”: CN1CCN(CC1)C2=CC(=C(C=C2)NC3=NC=C4C(=N3)N(C5=CC=CC=C5C(=O)N4C)C)OC [XMD8-85] + C[C@@H](Oc1cc(-c2cnn(C3CCNCC3)c2)cnc1N)c1c(Cl)ccc(F)c1Cl [Crizotinib] (partner 1 µM)
Summed up: as §1

Compound in the experiment “4EGI-1 + Dasatinib”: O=C(O)C(Cc1ccccc1[N+](=O)[O-])=NNc1nc(-c2ccc(Cl)c(Cl)c2)cs1 (mixture of isomers) [4EGI-1] + Cc1nc(Nc2ncc(C(=O)Nc3c(C)cccc3Cl)s2)cc(N2CCN(CCO)CC2)n1 [Dasatinib] (partner 0.075 µM)
An outline of the steps:
as §1

Compound in the experiment “4EGI-1 + Luminespib”: O=C(O)C(Cc1ccccc1[N+](=O)[O-])=NNc1nc(-c2ccc(Cl)c(Cl)c2)cs1 (mixture of isomers) [4EGI-1] + CCNC(=O)c1noc(-c2cc(C(C)C)c(O)cc2O)c1-c1ccc(CN2CCOCC2)cc1 [Luminespib] (partner 0.01 µM)
An outline of the steps:
as §1

For the cell line PC-14, the relative viability with 4EGI-1 + Navitoclax (first compound 0.5 µM) was found to be 1.09; with 4EGI-1 + Navitoclax (first compound 5 µM) it was 0.985; with 4EGI-1 + Navitoclax (first compound 50 µM), 0.981; with XMD8-85 + Crizotinib (first compound 0.08 µM) it was 0.867; with XMD8-85 + Crizotinib (first compound 0.253 µM), 0.874; with XMD8-85 + Crizotinib (first compound 0.8 µM), 0.834. The relative viability was 0.972 in the experiment with XMD8-85 + Crizotinib (first compound 2.53 µM); 0.722 with XMD8-85 + Crizotinib (first compound 8 µM); 0.342 with 4EGI-1 + Dasatinib (first compound 0.5 µM); 0.297 in the experiment with 4EGI-1 + Dasatinib (first compound 5 µM); 0.0363 with 4EGI-1 + Dasatinib (first compound 15.81 µM); 0.0488 with 4EGI-1 + Dasatinib (first compound 50 µM). Besides, the relative viability worked out at 0.466 with 4EGI-1 + Luminespib (first compound 0.5 µM), 0.195 with 4EGI-1 + Luminespib (first compound 5 µM), 0.155 in the experiment with 4EGI-1 + Luminespib (first compound 15.81 µM) and 0.155 with 4EGI-1 + Luminespib (first compound 50 µM).
Turning to LXF-289, the relative viability in the experiment with 4EGI-1 + Navitoclax (first compound 0.5 µM) is 1.01; in the experiment with 4EGI-1 + Navitoclax (first compound 1.581 µM), 0.933; with 4EGI-1 + Navitoclax (first compound 5 µM) it was 0.983; with 4EGI-1 + Navitoclax (first compound 15.81 µM), 0.915; in the experiment with 4EGI-1 + Navitoclax (first compound 50 µM) it was 0.784; with XMD8-85 + Crizotinib (first compound 0.08 µM), 0.787. For the same cell line, the relative viability with XMD8-85 + Crizotinib (first compound 0.253 µM) was determined as 0.798; in the experiment with XMD8-85 + Crizotinib (first compound 0.8 µM) it was 0.809; with XMD8-85 + Crizotinib (first compound 2.53 µM), 0.804; with XMD8-85 + Crizotinib (first compound 8 µM), 0.658; with 4EGI-1 + Dasatinib (first compound 0.5 µM) it was 0.282; with 4EGI-1 + Dasatinib (first compound 1.581 µM), 0.215. The relative viability with 4EGI-1 + Dasatinib (first compound 5 µM) stood at 0.249; with 4EGI-1 + Dasatinib (first compound 15.81 µM), 0.188; with 4EGI-1 + Dasatinib (first compound 50 µM) it was 0.102; with 4EGI-1 + Luminespib (first compound 0.5 µM), 0.745; with 4EGI-1 + Luminespib (first compound 1.581 µM), 0.62; with 4EGI-1 + Luminespib (first compound 5 µM), 0.745. Moreover, the relative viability was 0.644 in the experiment with 4EGI-1 + Luminespib (first compound 15.81 µM) and 0.407 in the experiment with 4EGI-1 + Luminespib (first compound 50 µM).
With NCI-H2009, the relative viability with 4EGI-1 + Navitoclax (first compound 0.5 µM) was 1.19; in the experiment with 4EGI-1 + Navitoclax (first compound 1.581 µM), 1.21; with 4EGI-1 + Navitoclax (first compound 5 µM), 1.22; with 4EGI-1 + Navitoclax (first compound 15.81 µM) it was 1.11; with 4EGI-1 + Navitoclax (first compound 50 µM), 0.17; with XMD8-85 + Crizotinib (first compound 0.08 µM) it was 1.03. Besides, the relative viability in the experiment with XMD8-85 + Crizotinib (first compound 0.253 µM) came out at 0.981; in the experiment with XMD8-85 + Crizotinib (first compound 0.8 µM), 1.1; with XMD8-85 + Crizotinib (first compound 2.53 µM) it was 1.06; with XMD8-85 + Crizotinib (first compound 8 µM), 0.395; in the experiment with 4EGI-1 + Dasatinib (first compound 0.5 µM) it was 0.344; with 4EGI-1 + Dasatinib (first compound 1.581 µM), 0.302. Further, the relative viability with 4EGI-1 + Dasatinib (first compound 5 µM) was 0.312; in the experiment with 4EGI-1 + Dasatinib (first compound 15.81 µM) it was 0.269; with 4EGI-1 + Dasatinib (first compound 50 µM) it was 0.146; with 4EGI-1 + Luminespib (first compound 0.5 µM) it was 1.09; with 4EGI-1 + Luminespib (first compound 1.581 µM), 1.08; with 4EGI-1 + Luminespib (first compound 5 µM), 1.05. Moreover, the relative viability came to 0.954 with 4EGI-1 + Luminespib (first compound 15.81 µM) and 0.994 in the experiment with 4EGI-1 + Luminespib (first compound 50 µM).
As to SK-LU-1, the relative viability was determined as 0.792 in the experiment with 4EGI-1 + Navitoclax (first compound 0.5 µM); 1.09 in the experiment with 4EGI-1 + Navitoclax (first compound 1.581 µM); 0.974 with 4EGI-1 + Navitoclax (first compound 5 µM); 0.548 in the experiment with 4EGI-1 + Navitoclax (first compound 15.81 µM); 0.161 in the experiment with 4EGI-1 + Navitoclax (first compound 50 µM); 0.568 with XMD8-85 + Crizotinib (first compound 0.08 µM). In addition, the relative viability with XMD8-85 + Crizotinib (first compound 0.253 µM) was 0.892; with XMD8-85 + Crizotinib (first compound 0.8 µM) it was 1.07; with XMD8-85 + Crizotinib (first compound 2.53 µM), 1.12; with XMD8-85 + Crizotinib (first compound 8 µM), 0.653; with 4EGI-1 + Dasatinib (first compound 0.5 µM) it was 0.189; with 4EGI-1 + Dasatinib (first compound 1.581 µM), 0.186. Besides, the relative viability with 4EGI-1 + Dasatinib (first compound 5 µM) amounted to 0.178; with 4EGI-1 + Dasatinib (first compound 15.81 µM) it was 0.198; in the experiment with 4EGI-1 + Dasatinib (first compound 50 µM) it was 0.185; in the experiment with 4EGI-1 + Luminespib (first compound 0.5 µM), 0.191; with 4EGI-1 + Luminespib (first compound 1.581 µM), 0.208; in the experiment with 4EGI-1 + Luminespib (first compound 5 µM), 0.208. The relative viability in the experiment with 4EGI-1 + Luminespib (first compound 15.81 µM) turned out to be 0.201; with 4EGI-1 + Luminespib (first compound 50 µM) it was 0.199.
Turning to NCI-H23, the relative viability worked out at 1.12 with 4EGI-1 + Navitoclax (first compound 0.5 µM); 0.947 in the experiment with 4EGI-1 + Navitoclax (first compound 5 µM); 0.883 in the experiment with 4EGI-1 + Navitoclax (first compound 15.81 µM); 0.708 in the experiment with 4EGI-1 + Navitoclax (first compound 50 µM); 0.4 in the experiment with XMD8-85 + Crizotinib (first compound 0.08 µM); 0.434 with XMD8-85 + Crizotinib (first compound 0.253 µM). For the same cell line, the relative viability with XMD8-85 + Crizotinib (first compound 0.8 µM) came out at 0.472; with XMD8-85 + Crizotinib (first compound 2.53 µM) it was 0.387; with XMD8-85 + Crizotinib (first compound 8 µM), 0.217; with 4EGI-1 + Dasatinib (first compound 0.5 µM) it was 0.896; with 4EGI-1 + Dasatinib (first compound 5 µM), 0.85; with 4EGI-1 + Dasatinib (first compound 15.81 µM), 0.79. Further, the relative viability with 4EGI-1 + Dasatinib (first compound 50 µM) came out at 0.496; with 4EGI-1 + Luminespib (first compound 0.5 µM), 0.221; with 4EGI-1 + Luminespib (first compound 5 µM) it was 0.23; with 4EGI-1 + Luminespib (first compound 15.81 µM), 0.246; with 4EGI-1 + Luminespib (first compound 50 µM) it was 0.179.
NCI-H2405: the relative viability was found to be 1.28 with 4EGI-1 + Navitoclax (first compound 0.5 µM); 0.628 with 4EGI-1 + Navitoclax (first compound 1.581 µM); 1.09 in the experiment with 4EGI-1 + Navitoclax (first compound 5 µM); 1.15 with 4EGI-1 + Navitoclax (first compound 15.81 µM); 0.58 in the experiment with 4EGI-1 + Navitoclax (first compound 50 µM); 0.829 with XMD8-85 + Crizotinib (first compound 0.08 µM). Also, the relative viability with XMD8-85 + Crizotinib (first compound 0.253 µM) worked out at 0.815; in the experiment with XMD8-85 + Crizotinib (first compound 0.8 µM), 0.769; with XMD8-85 + Crizotinib (first compound 2.53 µM) it was 0.85; with XMD8-85 + Crizotinib (first compound 8 µM), 0.665; with 4EGI-1 + Dasatinib (first compound 0.5 µM), 0.204; in the experiment with 4EGI-1 + Dasatinib (first compound 1.581 µM), 0.228. The relative viability turned out to be 0.225 with 4EGI-1 + Dasatinib (first compound 5 µM); 0.211 with 4EGI-1 + Dasatinib (first compound 15.81 µM); 0.172 with 4EGI-1 + Dasatinib (first compound 50 µM); 0.7 with 4EGI-1 + Luminespib (first compound 0.5 µM); 0.486 with 4EGI-1 + Luminespib (first compound 1.581 µM); 0.836 in the experiment with 4EGI-1 + Luminespib (first compound 5 µM). Besides, the relative viability in the experiment with 4EGI-1 + Luminespib (first compound 15.81 µM) was 0.672; in the experiment with 4EGI-1 + Luminespib (first compound 50 µM), 0.771.
Take RERF-LC-KJ: the relative viability with 4EGI-1 + Navitoclax (first compound 0.5 µM) is 0.902; in the experiment with 4EGI-1 + Navitoclax (first compound 5 µM) it was 0.858; with 4EGI-1 + Navitoclax (first compound 15.81 µM), 0.632; with 4EGI-1 + Navitoclax (first compound 50 µM) it was 0.706; with XMD8-85 + Crizotinib (first compound 0.08 µM), 0.881; with XMD8-85 + Crizotinib (first compound 0.253 µM), 0.751. Also, the relative viability was 0.807 in the experiment with XMD8-85 + Crizotinib (first compound 0.8 µM); 0.817 with XMD8-85 + Crizotinib (first compound 2.53 µM); 0.658 with XMD8-85 + Crizotinib (first compound 8 µM); 0.999 with 4EGI-1 + Dasatinib (first compound 0.5 µM); 0.641 with 4EGI-1 + Dasatinib (first compound 5 µM); 0.496 with 4EGI-1 + Dasatinib (first compound 15.81 µM). In addition, the relative viability was determined as 0.266 with 4EGI-1 + Dasatinib (first compound 50 µM); 1.16 in the experiment with 4EGI-1 + Luminespib (first compound 0.5 µM); 1.17 in the experiment with 4EGI-1 + Luminespib (first compound 5 µM); 0.994 in the experiment with 4EGI-1 + Luminespib (first compound 15.81 µM); 0.281 in the experiment with 4EGI-1 + Luminespib (first compound 50 µM).
Take HCC-827: the relative viability with 4EGI-1 + Navitoclax (first compound 0.5 µM) stood at 1.04; with 4EGI-1 + Navitoclax (first compound 1.581 µM), 0.936; with 4EGI-1 + Navitoclax (first compound 5 µM), 0.938; in the experiment with 4EGI-1 + Navitoclax (first compound 50 µM), 0.789; with XMD8-85 + Crizotinib (first compound 0.253 µM), 0.919; with XMD8-85 + Crizotinib (first compound 0.8 µM), 0.942. The relative viability with XMD8-85 + Crizotinib (first compound 2.53 µM) was found to be 0.944; with XMD8-85 + Crizotinib (first compound 8 µM) it was 0.856; with 4EGI-1 + Dasatinib (first compound 0.5 µM), 0.346; in the experiment with 4EGI-1 + Dasatinib (first compound 1.581 µM), 0.246; with 4EGI-1 + Dasatinib (first compound 5 µM) it was 0.345; in the experiment with 4EGI-1 + Dasatinib (first compound 15.81 µM), 0.127. Also, the relative viability with 4EGI-1 + Dasatinib (first compound 50 µM) came out at 0.261; in the experiment with 4EGI-1 + Luminespib (first compound 0.5 µM), 0.672; in the experiment with 4EGI-1 + Luminespib (first compound 1.581 µM), 0.804; with 4EGI-1 + Luminespib (first compound 5 µM), 0.661; with 4EGI-1 + Luminespib (first compound 50 µM), 0.581.
